The record followed here is patent US20220257571A1, “INHIBITOR OF MAP KINASE INTERACTING SERINE/THREONINE KINASE 1 (MNK1) AND MAP KINASE INTERACTING SERINE/THREONINE KINASE 2 (MNK2), CANCER THERAPY AND THERAPEUTIC COMBINATIONS” (FUNPACIÓ HOSPITAL UNIVERSITARI VALL D'HEBRON - INSTITUT DE …, priority 2019, published 2022).

Assay [1] has as its target T1, EphA4 receptor tyrosine kinase (Homo sapiens, UniProt P54764).
T1 construct: purchased Proqinase
Briefly: inhibitory test of EphA4 in the kinase panel. Format: biochemical. The method, then: The kinase activity of the compound was measured by a radiometric kinase assay (^33PanQinase® Activity Assay) carried out by Proqinase (www.proqinase.com).
The assays were carried out in 96-well FlashPlates™ by PerkinElmer (Boston, Mass., USA) with a reaction volume of 50 μl. The reaction cocktail was pipetted in 4 steps: (1) 20 μl buffer, (2) 5 μl ATP solution (in H2O), (3) 5 μl compound (in 10% DMSO) and (4) 20 μl enzyme/substrate mixture. Lastly, the cocktail contained 70 mM HEPES-NaOH pH 7.5, 3 mM MgCl2, 3 mM MnCl2, 3 μM sodium orthovanadate, 1.2 mM DTT, 50 μg/ml PEG20000, ATP (1 μM for MNK1 and 0.3 μM for MNK2), [γ-^33P]-ATP (approx. […] per well), protein kinase (variable amounts depending on the batch) and substrate (2 μg/50 μl).
Reaction cocktails were incubated at 30° C. for 60 minutes. The reaction was stopped with 50 μl of 2% H3PO4 (v/v), the plates were sucked, they were washed twice with 200 μl of 0.9% NaCl (w/v) and the incorporation of ^33Pi (MicroBeta microplate scintillation counter, Wallac) was determined. […]
The residual activity (in %) for each well of a particular plate was calculated using the following formula (wherein high control is the kinase activity in absence of an inhibitor and low control is the radioactivity value of the substrate in absence of a kinase).
To study selectivity, residual activity was measured at 1 μM from a 320-kinase panel.

The subject of assay [2] is eIF4E phosphorylation in breast cancer cells (MDA-MB-468). Briefly: titration of eIF4E phosphorylation in MDA-MB-468 cells. The format is cell-based. As to the method:
(§1) Commercially available MDA-MB-231, MDA-MB-468, MCF7 and A375M, IMR90 (IMR-90 (ATCC® CCL-186TH) cells were grown at 37° C. and 5% CO2 in DMEM medium (Dulbecco's Modified Eagle Medium, 4.5 g/I glucose; 30 mg/I L-Glutamine (Gibco)) supplemented with 10% foetal bovine serum, 100 U/ml penicillin and 100 μg/ml streptomycin.
(§2) Inhibition of eIF4E phosphorylation was quantified by Western Blot. Cells were seeded in 60 mm plates (700,000 cells for 24 h, 500,000 cells for 48 h and 300,000 cells for 72 h).
(§3) After 24 h, the treatments were added. The stocks of compounds were prepared in […] at a concentration 200 times more concentrated than the treatment concentration. Thus, in all cases, the final concentration of DMSO in the medium was 0.5%.
(§4) After incubation, proteins were removed and Western Blot was performed. On ice, the plates were washed with PBS and the cells were lysed with 60 μl lysis buffer (50 mM Tris, 200 mM NaCl, 5 mM EDTA, 0.1% Triton 100×, pH 7.5 supplemented with protease inhibitors (EDTA-free Protease Inhibitor Cocktail Set III, Calbiochem) and phosphatase inhibitors (Phosphatase Inhibitor Cocktail Set II, Calbiochem)). The samples were centrifuged at 15,000 g and the supernatant was quantified by the Bradford method. […] Selectivity against MNK was analysed with ERK, p-ERK, MNK1, p-MNK1, 4EBP1 and p-4EBP1 antibodies. […]

Assay [3] deals with MDA-MB-231 cells. Briefly: in vitro proliferation assay (crystal violet), MDA-MB-231. To be noted: tumour cells MDA-MB-231, concentrations necessary to inhibit MNK activity. Format: cell-based, human. As to the method: as §1
In 96-well plates, 5000 cells were seeded for each condition. After 24 h, the cells were treated with the compound at the corresponding concentration. The stocks of compounds were prepared in 100% DMSO at a concentration 200 times more concentrated than the treatment concentration. Thus, in all cases, the final concentration of DMSO in the medium is 0.5%. After incubation, the medium was removed and the cells were fixed with 4% PFA (100 μl per well) for 30 minutes. Two washes with PBS were performed.
Cells were stained with crystal violet (0.5% in EtOH): 100 μl were added to each well, stirred for 15 minutes, washed with water and left to dry. The content of each well was dissolved in 200 μl of 15% AcOH and the absorbance thereof was measured at 595 nm.

Assay [4] deals with eIF4E phosphorylation in MCF10 cells. Briefly: inhibition of eIF4E phosphorylation by Western Blot in MCF10 cells. Format: cell-based. Conditions: Homo sapiens; immortalised non-tumour breast cells (MCF10). As to the method:
MCF10A cells (also commercially available) were grown in DMEM/F-12 medium (Dulbecco's Modified Eagle Medium: 3.125 g/L D-Glucosa, 365 mg/L L-Glutamine, Nutrient Mixture F-12 (Gibco)) supplemented with 10% FBS, 100 U/ml penicillin, 100 μg/ml streptomycin, 1% L-Glutamine (Cambrex), 10 ng/ml choleric toxin (Sigma-Aldrich), 0.005 mg/ml insulin (Sigma), 100 ng/ml hydrocortisone (Sigma) and 20 ng/ml EGF (Epidermal growth factor, Sigma).
as §2, §3
After incubation, proteins were removed and Western Blot was performed. […] The samples were centrifuged at 15,000 g and the supernatant was quantified by the Bradford method. […] Selectivity against MNK was analysed with ERK, p-ERK, MNK1, p-MNK1, 4EBP1 and p-4EBP1 antibodies.
In general terms: Immunoblotting shows a protein as a band on a membrane.

Assay [5] deals with eIF4E phosphorylation in melanoma cells (A375M). Briefly: titration of eIF4E phosphorylation in A375M cells. Format: cell-based. The method, then: as §1, §2, §3, §4
Assay [6] has as its system eIF4E phosphorylation in leukaemia cells (MV4-11). Briefly: titration of eIF4E phosphorylation in MV4-11 cells. Format: cell-based. The method, then:
MV4-11 cells were grown in IMDM medium (Iscove's Modified Dulbecco's Medium, Gibco) supplemented with 10% FBS, 1% L-glutamine, 100 U/ml penicillin and 100 μg/ml streptomycin.
as §2, §3
as §4, with “method. The samples were all diluted to the same concentration with a lysis buffer and loading buffer (Laemmli buffer) and denatured for 5 minutes at 95° C.” for “method.”

In assay [7] the test system is MDA-MB-231 cells. Briefly: FACS analysis of cell cycle and subG1, MDA-MB-231. Format: cell-based. Conditions: MDA-MB-231, higher concentrations. As to the method: To determine how cell growth is affected at higher concentrations of EB1, a FACS analysis was performed to monitor the state of the cell cycle and the percentage of cells in subG1 as an indicator of cell death. […] Equivalent results have been described for the MNK1/2 inhibitor BAY 11433296 (FIG. 4).

T1 sequence (P54764 20-986): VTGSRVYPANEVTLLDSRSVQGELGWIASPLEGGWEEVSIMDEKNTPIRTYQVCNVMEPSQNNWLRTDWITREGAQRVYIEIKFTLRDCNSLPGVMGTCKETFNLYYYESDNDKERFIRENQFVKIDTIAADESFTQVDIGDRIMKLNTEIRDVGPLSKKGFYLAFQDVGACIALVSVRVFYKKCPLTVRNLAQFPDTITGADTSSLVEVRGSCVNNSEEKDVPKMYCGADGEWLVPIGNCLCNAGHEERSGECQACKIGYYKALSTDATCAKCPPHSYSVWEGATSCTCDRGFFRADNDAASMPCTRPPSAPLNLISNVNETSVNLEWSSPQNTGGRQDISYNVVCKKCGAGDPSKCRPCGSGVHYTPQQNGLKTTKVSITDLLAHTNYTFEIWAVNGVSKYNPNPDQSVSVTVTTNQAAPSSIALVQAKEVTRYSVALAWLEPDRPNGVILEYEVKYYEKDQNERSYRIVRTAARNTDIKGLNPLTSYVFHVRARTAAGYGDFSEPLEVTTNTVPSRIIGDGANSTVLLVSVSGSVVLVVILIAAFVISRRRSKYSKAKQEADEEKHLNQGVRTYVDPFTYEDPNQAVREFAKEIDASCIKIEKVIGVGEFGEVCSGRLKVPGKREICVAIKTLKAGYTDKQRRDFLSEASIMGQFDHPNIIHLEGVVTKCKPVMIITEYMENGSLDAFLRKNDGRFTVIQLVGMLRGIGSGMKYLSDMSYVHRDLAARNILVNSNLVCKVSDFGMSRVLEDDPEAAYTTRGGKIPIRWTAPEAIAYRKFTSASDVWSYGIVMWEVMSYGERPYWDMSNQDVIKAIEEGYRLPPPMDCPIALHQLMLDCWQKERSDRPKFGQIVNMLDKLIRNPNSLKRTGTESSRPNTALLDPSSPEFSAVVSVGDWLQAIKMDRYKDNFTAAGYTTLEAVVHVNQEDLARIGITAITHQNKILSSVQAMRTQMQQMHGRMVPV

The term inhibition denotes the drop in the measured response relative to a control, in per cent. Low readings indicate a weak effect, high ones a strong effect. For orientation: EC50 means the concentration needed to bring the measured effect to its halfway point. Higher therefore signals lower potency in that assay. For `Nc1n[nH]c2nc(-c3ccccc3)cc(-c3ccccc3)c12` [EB1, 4,6-diphenyl-1H-pyrazolo[3,4-b]pyridin-3-amine], in assay [1], the inhibition at 1 µM is 10%. Also, the “activity as MNK inhibitor (eIF4E phosphorylation)” value in assay [2], in assay [5] and in assay [6] was “active” in each case. Moreover, the “effect on cell growth” value with MDA-MB-231 cells [3] was “does not affect the cell growth”. The molecule further showed an EC50 in assay [4] of 0.7 µM. Besides, the “cells in the G1 phase of the cell cycle” value in the assay with MDA-MB-231 cells [7] was “increase of cells could be observed in the G1 phase”.
